# Assay results taken from ChEMBL document CHEMBL5550199, “Rational In Silico Design of Selective TMPRSS6 Peptidomimetic Inhibitors via Exploitation of the S2 Subpocket” (J Med Chem, 2024).
# Active and inactive are the calls of the source. The rule behind the calls is not given here.
# Tests used:
# [1] = species: Homo sapiens; assay: (§1) Selectivity index, ratio of Ki for competitive tight binding inhibition of recombinant human Matriptase using Boc-QAR-AMC as substrate assessed as inhibition constant by fluorescence based analysis to Ki for competitive tight binding inhibition of recombinant human TMPRSS6 using Boc-QAR-AMC as substrate assessed as inhibition constant by fluorescence based analysis
# [2] = biological target: T1, Coagulation factor X (Homo sapiens, UniProt P00742); assay: Inhibition of FXA (unknown origin)
# [3] = biological target: T2, Transmembrane protease serine 6 (Homo sapiens, UniProt Q8IU80); assay: Inhibition of human TMPRSS6 transfected in HEK293SL cells using Boc-QAR-AMC as substrate measured for 24 hrs; format: cell-based
# T2 sequence (Q8IU80 whole entry): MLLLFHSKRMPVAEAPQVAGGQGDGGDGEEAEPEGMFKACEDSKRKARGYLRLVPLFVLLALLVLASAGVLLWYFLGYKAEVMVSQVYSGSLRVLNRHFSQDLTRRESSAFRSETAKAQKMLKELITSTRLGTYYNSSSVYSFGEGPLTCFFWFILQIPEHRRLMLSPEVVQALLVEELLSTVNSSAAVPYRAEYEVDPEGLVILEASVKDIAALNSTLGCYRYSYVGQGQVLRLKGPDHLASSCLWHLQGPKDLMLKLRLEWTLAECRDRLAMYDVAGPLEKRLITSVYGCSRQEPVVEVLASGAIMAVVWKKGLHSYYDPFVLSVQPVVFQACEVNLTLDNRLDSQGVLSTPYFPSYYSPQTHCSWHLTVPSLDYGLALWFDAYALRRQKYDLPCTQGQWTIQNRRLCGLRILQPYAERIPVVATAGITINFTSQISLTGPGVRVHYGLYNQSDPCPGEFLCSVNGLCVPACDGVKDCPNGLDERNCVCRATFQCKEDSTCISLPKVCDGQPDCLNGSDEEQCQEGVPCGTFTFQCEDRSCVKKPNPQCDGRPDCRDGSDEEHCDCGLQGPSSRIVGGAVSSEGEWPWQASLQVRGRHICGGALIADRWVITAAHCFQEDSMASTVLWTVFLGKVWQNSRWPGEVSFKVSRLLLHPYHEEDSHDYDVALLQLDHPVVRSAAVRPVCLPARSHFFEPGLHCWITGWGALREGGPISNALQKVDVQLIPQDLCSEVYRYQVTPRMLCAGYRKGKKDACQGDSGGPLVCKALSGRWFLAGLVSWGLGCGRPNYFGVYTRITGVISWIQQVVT
# [4] = biological target: T3, Suppressor of tumorigenicity 14 protein (Homo sapiens, UniProt Q9Y5Y6); assay: Inhibition of human Matriptase transfected in HEK293SL cells using Boc-QAR-AMC as substrate measured for 24 hrs; format: cell-based
# T3 sequence (Q9Y5Y6 whole entry): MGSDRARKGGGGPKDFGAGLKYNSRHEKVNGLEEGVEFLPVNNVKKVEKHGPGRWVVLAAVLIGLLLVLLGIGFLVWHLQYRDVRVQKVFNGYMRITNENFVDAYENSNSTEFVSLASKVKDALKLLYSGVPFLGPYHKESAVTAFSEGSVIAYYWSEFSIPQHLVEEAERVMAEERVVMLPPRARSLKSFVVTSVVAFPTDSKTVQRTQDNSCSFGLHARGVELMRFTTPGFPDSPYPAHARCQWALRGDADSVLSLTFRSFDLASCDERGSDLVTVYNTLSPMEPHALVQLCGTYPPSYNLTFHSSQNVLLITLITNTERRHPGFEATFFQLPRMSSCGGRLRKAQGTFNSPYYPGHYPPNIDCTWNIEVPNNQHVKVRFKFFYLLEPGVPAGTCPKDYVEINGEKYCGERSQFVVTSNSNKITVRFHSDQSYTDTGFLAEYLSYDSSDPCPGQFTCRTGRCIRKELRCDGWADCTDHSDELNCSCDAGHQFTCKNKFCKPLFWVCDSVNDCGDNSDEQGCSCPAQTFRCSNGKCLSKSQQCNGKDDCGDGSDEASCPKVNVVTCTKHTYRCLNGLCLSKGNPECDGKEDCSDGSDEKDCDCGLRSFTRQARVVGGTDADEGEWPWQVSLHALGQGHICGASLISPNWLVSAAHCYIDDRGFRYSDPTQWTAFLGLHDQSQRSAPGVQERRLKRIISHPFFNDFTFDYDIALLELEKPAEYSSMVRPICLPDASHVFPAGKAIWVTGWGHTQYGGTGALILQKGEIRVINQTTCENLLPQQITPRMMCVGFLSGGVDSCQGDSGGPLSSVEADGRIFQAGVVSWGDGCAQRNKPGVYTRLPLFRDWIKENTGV
# [5] = biological target: T4, Suppressor of tumorigenicity 14 protein (Homo sapiens) (UniProt Q9Y5Y6); assay: Inhibition of recombinant human Matriptase at 100 nM by Michaelis-Menten analysis relative to control
# T4 sequence (whole entry): T3 sequence (Q9Y5Y6 whole entry)
# [6] = biological target: T5, Furin (Homo sapiens, UniProt P09958); assay: Inhibition of recombinant human furin using Boc-RVRR-AMC as substrate assessed as inhibition constant by fluorescence based analysis
# [7] = tested on: Caco-2; assay: Disruption of epithelial integrity in human Caco-2 cells assessed as change in TEER modulation after 8 days; format: functional, cell-based; conditions: Caco-2, 192 h
# [8] = biological target: T6, Transmembrane protease serine 6 (Homo sapiens) (UniProt Q8IU80); assay: Inhibition of recombinant human TMPRSS6 at 100 nM by Michaelis-Menten analysis relative to control
# T6 sequence (whole entry): T2 sequence (Q8IU80 whole entry)
# [9] = biological target: T7, Prothrombin (Homo sapiens, UniProt P00734); assay: Inhibition of thrombin (unknown origin)
# [10] = species: Homo sapiens; assay: as §1, with “for” for “for competitive tight”, “affinity to” for “inhibition of”
# [11] = biological target: T1, Coagulation factor X; assay: Inhibition of recombinant human FXA using Boc-QAR-AMC as substrate assessed as inhibition constant by fluorescence based analysis
# [12] = species: Homo sapiens; assay: Selectivity index, ratio of IC50 for inhibition of human Matriptase transfected in HEK293SL cells using Boc-QAR-AMC as substrate to IC50 for inhibition of human TMPRSS6 transfected in HEK293SL cells using Boc-QAR-AMC as substrate; format: cell-based
# [13] = Metabolic stability in Sprague-Dawley rat microsome assessed as half life measured for 120 mins in presence of NADPH by UPLC-MS analysis; format: ADME; conditions: microsomes, 2 h
# [14] = biological target: T2, Transmembrane protease serine 6; assay: Competitive tight binding inhibition of recombinant human TMPRSS6 using Boc-QAR-AMC as substrate assessed as inhibition constant by fluorescence based analysis
# [15] = Cytotoxicity against HEK cells assessed as reduction in cell viability measured for 24 hrs by celltiter-glo 2.0 assay; format: toxicity, cell-based; conditions: human
# [16] = Metabolic stability in Sprague-Dawley rat microsome assessed as intrinsic clearance measured for 120 mins in presence of NADPH by UPLC-MS analysis; format: ADME; conditions: microsomes, 2 h
# [17] = tested on: Caco-2; assay: Disruption of epithelial integrity in human Caco-2 cells assessed as change in TEER modulation at 10 uM after 8 days; format: functional, cell-based; conditions: time 8.0 day
# [18] = biological target: T5, Furin; assay: Inhibition of furin (unknown origin)
# [19] = Stability in Sprague-Dawley rat plasma assessed as parent compound remaining at 24 hrs by UPLC-MS analysis; format: ADME, cell-free
# [20] = biological target: T7, Prothrombin; assay: Inhibition of recombinant human thrombin using Boc-QAR-AMC as substrate assessed as inhibition constant by fluorescence based analysis
# [21] = Apparent Permeability of compound in PBS buffer at pH 7.4 incubated for 17 hrs by PAMPA assay; format: ADME; conditions: pH 7.4, 17 h
# [22] = biological target: T3, Suppressor of tumorigenicity 14 protein; assay: Binding affinity to recombinant human Matriptase using Boc-QAR-AMC as substrate assessed as inhibition constant by fluorescence based analysis
# [23] = biological target: T2, Transmembrane protease serine 6; assay: Binding affinity to recombinant human TMPRSS6 using Boc-QAR-AMC as substrate assessed as inhibition constant by fluorescence based analysis
# [24] = biological target: T3, Suppressor of tumorigenicity 14 protein; assay: Competitive tight binding inhibition of recombinant human Matriptase using Boc-QAR-AMC as substrate assessed as inhibition constant by fluorescence based analysis
# [25] = Solubility of compound in PBS at pH 7.4 measured for 90 mins by UPLC analysis; format: physicochemical; conditions: buffer, pH 7.4, 1.5 h
# T1 sequence (P00742 41-179 limits assumed): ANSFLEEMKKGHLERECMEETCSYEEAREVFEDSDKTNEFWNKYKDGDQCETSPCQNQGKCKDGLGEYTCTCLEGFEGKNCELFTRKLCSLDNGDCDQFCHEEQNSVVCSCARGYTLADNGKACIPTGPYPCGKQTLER
# T1 sequence (P00742 235-488 limits assumed): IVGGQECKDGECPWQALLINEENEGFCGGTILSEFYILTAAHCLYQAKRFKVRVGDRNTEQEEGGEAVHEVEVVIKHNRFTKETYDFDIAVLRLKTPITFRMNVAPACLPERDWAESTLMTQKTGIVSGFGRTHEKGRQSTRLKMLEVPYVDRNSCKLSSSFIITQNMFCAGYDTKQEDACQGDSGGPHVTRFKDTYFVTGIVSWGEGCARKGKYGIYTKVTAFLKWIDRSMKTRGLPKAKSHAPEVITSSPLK
# T5 sequence (P09958 whole entry): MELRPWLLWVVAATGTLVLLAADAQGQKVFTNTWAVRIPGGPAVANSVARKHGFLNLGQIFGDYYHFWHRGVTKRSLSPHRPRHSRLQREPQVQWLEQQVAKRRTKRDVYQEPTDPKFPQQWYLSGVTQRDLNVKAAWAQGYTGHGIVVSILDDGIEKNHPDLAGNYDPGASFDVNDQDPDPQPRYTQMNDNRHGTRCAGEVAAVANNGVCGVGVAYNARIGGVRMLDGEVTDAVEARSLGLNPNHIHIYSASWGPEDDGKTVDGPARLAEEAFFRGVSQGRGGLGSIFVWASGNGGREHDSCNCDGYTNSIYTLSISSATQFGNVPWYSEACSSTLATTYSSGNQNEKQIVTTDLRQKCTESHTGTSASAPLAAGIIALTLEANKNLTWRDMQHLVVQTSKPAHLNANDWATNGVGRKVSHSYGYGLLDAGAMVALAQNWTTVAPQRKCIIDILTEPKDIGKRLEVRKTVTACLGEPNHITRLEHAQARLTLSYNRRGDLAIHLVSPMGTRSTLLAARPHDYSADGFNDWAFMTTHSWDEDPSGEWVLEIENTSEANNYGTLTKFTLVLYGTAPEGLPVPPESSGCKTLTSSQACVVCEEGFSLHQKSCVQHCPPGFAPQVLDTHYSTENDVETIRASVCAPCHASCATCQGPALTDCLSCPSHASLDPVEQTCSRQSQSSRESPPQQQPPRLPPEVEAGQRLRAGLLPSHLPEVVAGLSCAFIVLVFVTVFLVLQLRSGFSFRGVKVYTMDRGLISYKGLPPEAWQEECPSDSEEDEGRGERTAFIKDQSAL
smiles,measurement,setting,value
CC(C)[C@H](NC(=O)[C@H](Cc1cscn1)NC(=O)CCc1ccccc1)C(=O)N[C@@H](CCCNC(=N)N)C(=O)c1nc2ccccc2s1,Ratio Ki,[1],8
same,Ki,[2],323 nM
same,IC50,[3],4.4 nM
same,IC50,[4],18.1 nM
same,inhibition,[5],5%
same,Ki,[6],> 10000 nM
same,IC50,[7],18.1 nM
same,inhibition,[8],1%
same,Ki,[9],1100 nM
same,Ratio Ki,[10],7.2
same,Ki,[11],2320 nM
same,Ratio IC50,[12],4
same,t1/2,[13],> 2 h
same,Ki,[14],0.6 nM
same,Activity,[15],Non-Toxic
same,CLH,[16],1.12 µL/min/mg
same,Activity,[17],Active
same,Ki,[18],> 30000 nM
same,Stability,[19],6%
same,Ki,[20],53 nM
same,Papp,[21],0.004 10^-6 cm/s
same,Ki,[22],8.6 nM
same,Ki,[23],1.2 nM
same,Ki,[24],4.8 nM
same,solubility,[25],250 µM
